Measured values as given in US20110212834A1, “Pesticidal Compound Mixtures” (BAYER CROPSCIENCE AG, priority 2009, published 2011).

What was measured:
Format in all cases: in vivo
Settings in all cases: 144 h, single compound, after 6 d
[1] = tested on: Myzus persicae; experiment: Myzus persicae test, spray treatment of infested cabbage leaves
Description: (§1) To produce a suitable preparation of active compound, 1 part by weight of active compound is mixed with the stated amount of solvent and emulsifier, and the concentrate is diluted with emulsifier-containing water to the desired concentration.
Cabbage leaves (Brassica oleracea) which are heavily infested by the green peach aphid (Myzus persicae) are treated by being sprayed with the preparation of the active compound at the desired concentration.
After the specified period of time, the mortality in % is determined. 100% means that all the aphids have been killed; 0% means that none of the aphids have been killed.

[2] = tested on: Phaedon cochleariae; experiment: Phaedon cochleariae larvae test, sprayed cabbage leaves
Description: as §1
Cabbage leaves (Brassica oleracea) are treated by being sprayed with the preparation of the active compound at the desired concentration and are infested with larvae of the mustard beetle (Phaedon cochleariae) as long as the leaves are still moist.
(§2) After the specified period of time, the mortality in % is determined. 100% means that all the beetle larvae have been killed; 0% means that none of the beetle larvae have been killed. According to the present application in this test e.g. the following combinations show a synergistic effect in comparison to the single compounds: […]

[3] = tested on: Tetranychus urticae; experiment: Tetranychus test (OP-resistant), sprayed bean plants
Description: as §1
Bean plants (Phaseolus vulgaris) which are heavily infested with all stages of the two-spotted spider mite (Tetranychus urticae) are treated by being sprayed with the preparation of the active compound at the desired concentration.
After the specified period of time, mortality in % is determined. 100% means that all the spider mites have been killed; 0% means that none of the spider mites have been killed.

[4] = tested on: Spodoptera frugiperda; experiment: Spodoptera frugiperda test, sprayed cabbage leaves
Description: as §1
Cabbage leaves (Brassica oleracea) are treated by being sprayed with the preparation of the active compound at the desired concentration and are infested with larvae of the fall army worm (Spodoptera frugiperda) as long as the leaves are still moist.
as §2, with “caterpillars” for “beetle larvae”

Row | Structure (SMILES) | mortality at 500 g/ha [1] | mortality at 500 g/ha [2] | mortality at 500 g/ha [4] | other results
1 | CC(C1CC1)C(O)(Cn1cncn1)c1ccc(Cl)cc1 (stereo not drawn) [Cyproconazole, cyproconazole] | 0% | 0% |  | mortality at 500 g/ha ([3]; 500 g/ha): 0%
2 | CC(C)C1CCC(Cc2ccc(Cl)cc2)C1(O)Cn1cncn1 (stereo not drawn) [Ipconazole, ipconazole] | 0% | 0% | 0% | 
3 | OC(Cc1ccccc1Cl)(Cn1nc[nH]c1=S)C1(Cl)CC1 (stereo not drawn) [Prothioconazole] | 0% |  |  | 
4 | CC(C)(C)C(O)(CCc1ccc(Cl)cc1)Cn1cncn1 (stereo not drawn) [Tebuconazole, tebuconazole] | 0% | 0% | 0% | 
5 | CC1(C)[C@H](C=C(Cl)Cl)[C@H]1C(=O)OCc1c(F)c(F)cc(F)c1F [Transfluthrin] |  |  |  | mortality at 20 g/ha ([1]; 20 g/ha): 0%; mortality at 100 g/ha ([1]; 100 g/ha): 80%; mortality at 20 g/ha ([2]; 20 g/ha): 0%; mortality at 4 g/ha ([4]; 4 g/ha): 50%; mortality at 100 g/ha ([3]; 100 g/ha): 0%
